Test results as given in US20190307820A1, “COMPOSITIONS AND METHODS OF USING STAT1/3 INHIBITORS WITH ONCOLYTIC HERPES VIRUS” (priority 2016, published 2019).
pIC50: −log10 of the molar value.

Legend:
Format in all cases: cell-based
[1] = tested on: ICP27; experiment: Western blot of ICP27 in HSV-1 infected microglia cells; conditions: for ICP27 expression: 1 μM C16, 24 hours
Method: (§1) FIG. 12B depicts an electrophoresis gel showing total proteins that were harvested from G2O7 infected microglia cells at 24 hours post treatment with either 1 μM of C16, 1 μM of Bay11, or 100 μM of AG. ICP27, ICP4, and […] expression was measured by western blot assay. U87 and MG co-culture were pretreated with 0.5 μM of C16 for 1 hour.
as §1, with “12C” for “12B”, “HrR3 or KOS” for “G2O7”, “post-treatment” for “post treatment”, “with” for “with either”, “PKR-i (C16).” for “C16, 1 μM of Bay11, or 100 μM of AG.”
Total protein was harvested with sample buffer (125 mM Tris-HCL, 50% Glycerol, […] and 5% 2-mercaptoethanol) and boiled for 5 minutes. Protein samples were subjected to SDS-PAGE (8% gel), transferred to nitrocellulose membranes and blocked in 5% nonfat milk (Bio Rad) in TBS-Tween 20 (TBS-T) for 1 hour at room temperature. The membranes were then incubated with primary antibody against β-actin at 1:1000 (Cell Signaling, Danvers, Mass.) or anti-STAT1 antibody at 1:1000 (Cell Signaling, Danvers, Mass.) or anti-STAT3 antibody at 1:1000 (Cell Signaling, Danvers, Mass.) or anti-phospho STAT1 antibody (Tyr701) at 1:1000 (Cell Signaling, Danvers, Mass.) or anti-phospho STAT3 antibody (Tyr705) at 1:1500 (Cell Signaling, Danvers, Mass.) or anti-phosphor-eIF2a antibody (ser51) at 1:1000 (Cell Signaling, Danvers, Mass.) or anti-ICP27 antibody at 1:1000 (Abcam, Cambridge, Mass.) or anti-ICP4 antibody at 1:750 (Abcam, Cambridge, Mass.) for overnight at 4° C. The membranes were washed the next day with TBS-T three times and incubated with corresponding secondary antibody at 1:3000 (Perkim Elmer, Boston, Mass.), for 1 hour at room temperature. Membranes were washed with TBS-T three times before visualization using ECL reagent (Perkim Elmer, Boston, Mass.) and VersaDoc imaging system (Bio-Rad). Band density was measured by using ImageJ software (NIH, Bethesda, Md.). […]

[2] = tested on: LnCap cells; experiment: MTT cytotoxicity assay, LnCap cells; conditions: Homo sapiens, 72 hours, read-out: Inhibitory concentration 50% (IC50)
Method: FIGS. 1A-1B are graphs that show an anti-tumor effect of nifuroxazide. (FIG. 1A) Cells were treated with indicated concentration of nifuroxazide for 72 hours. Cytotoxicity was measured by using MTT assay. (FIG. 1B) Subcutaneously U87 tumor bearing mice were peritoneally injected with indicated doses of nifuroxazide. Tumor size was measured using calipers at day 7 post nifuroxazide treatment.
In this example, the antitumor effect of nifuroxazide is evaluated in different tumor cells. Cells were treated with nifuroxazide for 72 hours (FIG. 1A). […] To verify the anti-tumor efficacy of nifuroxazide in vivo, animals with subcutaneous U87 tumor implants were injected in the peritoneum with vehicle, 1 mg/kg nifuroxazide and 50 mg/kg nifuroxazide. […] Tumor volume was reduced around 25% and 60% after 7 days treatment with 1 mg/kg nifuroxazide and 50 mg/kg nifuroxazide respectively (FIG. 1B).
Cells were seeded in a 96-well plate at a density of 1×104 (U87). After overnight incubation, cells were treated with only vehicle or indicated MOI of virus or indicated concentration of drugs or reagents. After 2 to 3 days of treatment cell viability was measured by MTT assay (Sigma, Canada) according to the manufacturer's instruction. […] After overnight incubation with lysis buffer, cell viability was measured at 595 nm using a plate reader (Envision 2103 Multilabel reader, Perkin Elmer).

[3] = tested on: CT26, LL2, U87, B16, 4T1 tumor cells; experiment: Cell survival (MTT) of tumor cell panel with nifuroxazide and/or virus; conditions: nifuroxazide 0-100 μM
Excerpt: FIGS. 7A-7L show results of treatment of tumor cells with nifuroxazide and oHSV-1. FIG. 7A-7C show cell survival for tumor cells CT26, LL2 and U87 treated with nifuroxazide or HrR3 or KOS. FIG. 7D-7G show cell survival of tumor cells, U87, CT26, 4T1 and LL2, treated first with nifuroxazide and then HrR3 virus. FIG. 7H-7K show combination index (CI) values for tumor cells treated with varying doses of nifuroxazide or the viruses, HrR3 or KOS, or VG12TR, alone or in combination. FIG. 7L is a table presenting the dose reduction index for a combination of nifuroxazide and HrR3 virus.
In this example, the effect of nifuroxazide and oHSV-1 on tumor cells was evaluated. A variety of cancer cell types were treated with nifuroxazide (from 0-100 μM) or HrR3 virus at a MOI from 0 to 12.5 or KOS virus at a MOI from 1 to 12.5. Cell survival was measured.
Tumor cells were treated with nifuroxazide or medium. Following incubation, virus was added and further incubated for 72 (FIG. 7D) or 48 hrs (FIG. 7E-7G). Cytotoxicity was measured by an MTT assay. […]
If FIG. 7H-7K, cells were treated with varying doses of nifuroxazide or the indicated viruses (HrR3, KOS, or VG12TR) alone or in combination for 48 hrs (7J, 7K) or 72 hrs (7H) Cell viability was measured by a MTT assay and combination index (CI) values were calculated using Chour-Talalay analysis. […]

Row | SMILES | upregulated expression of ICP27 ([1]; G207 infected, 1 μM C16, 1 μM Bay11 or 100 μM AG, 24 hours) | ICP27 expression ([1]; HrR3 infected BV2 cells) | ICP27 expression ([1]; KOS infected BV2 cells) | pIC50 [2] | Cell survival [3]
1 | O=C1Nc2ccc3ncsc3c2/C1=C/c1c[nH]cn1 [C16, 6,8-Dihydro-8-(1H-imidazol-5-ylmethylene)-7H-pyrrolo[2,3-g]benzothiazol-7-one] | 25 fold | upregulated ICP27 expression | upregulated ICP27 expression | – | –
2 | O=C(N/N=C/c1ccc([N+](=O)[O-])o1)c1ccc(O)cc1 [nifuroxazide, Benzoic acid, 4-hydroxy-, [(5-nitro-2-furanyl)metylene]hydrazide] | – | – | – | ~5.30 | caused cell mortality in all cell lines at higher doses
